Measured values: patent US20100004238A1, “FUSED HETEROCYCLIC COMPOUND” (TAKEDA PHARMACEUTICAL COMPANY LIMITED, priority 2006, published 2010)
pIC50: −log10 of the molar value.

Experiments:
[1] = system: human breast cancer cell BT-474; assay: Inhibitory action on breast cancer cell BT-474 proliferation in vitro; format: cell-based; details: 120 h, BT-474 cells, cultured for 5 days with compound, SRB protein content
Experimental: A suspension of human breast cancer cell BT-474 (100 μl (6,000 cells)) were plated in a 96-well microplate and cultured in an incubator (37° C., 5% carbon dioxide). On the following day, 100 μl of a solution of each test compound previously diluted serially in 2-fold, was added, and the cells were cultured for 5 days. After the culture medium containing the test compound was removed, the cells were washed and fixed with 50% trichloroacetic acid, after which a 0.4% (w/v) SRB dye solution (dissolved in 1% acetic acid) was added to stain as well as fix the cell protein (Skehan et al., Journal of the National Cancer Institute, Vol. 82, pp. 1107-1112, 1990). After washing with a 1% acetic acid solution, 100 μl of extract solution (10 mM, Tris buffer) was added to extract the dye and the absorbance was measured at a wavelength of 550 nm to quantify the amount of cells as protein content. Taking as 100% the protein content for the control group, which received no test compound solution, the ratio of the residual protein content for each treatment group was determined, and the compound concentration required to achieve 50% suppression of the residual cell content relative to the control (IC50 value) was calculated.

[2] = target: T1, EGFR intracellular domain (EGFR kinase) (Homo sapiens, UniProt P00533); assay: Determination of EGFR kinase inhibitory activity; format: biochemical; details: compound at 1.0 μM, poly-Glu:Tyr (4:1) substrate, [γ-32P]ATP; for inhibition at 1 µM: read-out: inhibitory rate (%) at 1.0 μM
T1 construct: made in house; host or cells: SF-21 insect cells infected with recombinant baculovirus BAC-EGFR
T1 sequence (P00533 669-1210): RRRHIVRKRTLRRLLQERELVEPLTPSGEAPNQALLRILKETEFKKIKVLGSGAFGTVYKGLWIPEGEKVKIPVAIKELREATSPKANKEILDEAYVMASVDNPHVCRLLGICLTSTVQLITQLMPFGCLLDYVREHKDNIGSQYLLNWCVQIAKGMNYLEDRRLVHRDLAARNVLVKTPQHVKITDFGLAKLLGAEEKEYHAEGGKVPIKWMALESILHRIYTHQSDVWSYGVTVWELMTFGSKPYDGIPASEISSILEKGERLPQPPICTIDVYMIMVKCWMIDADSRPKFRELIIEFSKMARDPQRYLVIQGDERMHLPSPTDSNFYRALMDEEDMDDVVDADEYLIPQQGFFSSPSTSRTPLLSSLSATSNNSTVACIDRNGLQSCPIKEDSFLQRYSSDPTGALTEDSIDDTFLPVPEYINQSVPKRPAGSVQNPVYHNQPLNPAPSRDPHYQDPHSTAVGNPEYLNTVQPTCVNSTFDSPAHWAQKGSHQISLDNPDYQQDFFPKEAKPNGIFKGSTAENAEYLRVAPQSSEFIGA
Experimental: Human EGFR gene was cloned by RT-PCR using total RNA prepared from A431 cells as a template. The primer used for RT-PCR was prepared in consideration of the information of nucleotide sequence (Genbank Accession No. X00588) of EGFR gene by adding a nucleotide sequence encoding DYKDDDD peptide and a restriction enzyme recognition sequence to a nucleotide sequence (corresponding to 2191-3819 of Genbank Accession No. X00588 as a base, 669-1210 amino acids of Genbank Accession No. NP_005219 as a protein) encoding the EGFR intracellular domain region such that the protein contains an N-terminal DYKDDDD peptide tag. The primer nucleotide sequence is shown below.
(§1) SF-21 cells were sown at 1×10^6 cells/mL in Sf-900II SFM medium (1 L, Invitrogen) containing 10% fetal bovine serum (trace), 50 mg/L gentamicin (Invitrogen) and 0.1% Pluronic F-68 (Invitrogen), and shaking culture was performed using a 2 L volume Erlenmeyer flask at 27° C., 100 rpm. After culturing for 24 hrs, recombinant baculovirus BAC-EGFR (13.4 mL) was added, and the mixture was further cultured for 3 days. The culture medium was centrifuged at 2,000 rpm for 5 min to give virus-infected cells. The infected cells were washed with a phosphate buffered saline (Invitrogen), centrifuged under the same conditions, and the cells were preserved at −80° C. The cryopreserved cells were thawed in ice, suspended in buffer A (50 mM Tris buffer (30 mL, pH 7.4) containing 20% glycerol, 0.15 M NaCl) supplemented with Complete Protease Inhibitor (Boehringer), and ruptured 3 times with a Polytron homogenizer (Kinematica) at 20,000 rpm for 30 sec. The ruptured solution was clarified by centrifugation at 40,000 rpm for 30 min, and filtered with a 0.45 μm filter. The filtrate was passed through a column packed with Anti-FLAG M2 Affinity Gel (4 mL, Sigma-Aldrich) at a flow rate of about 0.5 mL/min. The column was washed with buffer A, and eluted with buffer A containing 100 μg/mL of FLAG peptide. The eluent was concentrated with Vivaspin 20 (Vivascience) having a molecular weight cut off of 30K. The concentrate was purified by gel filtration using Hi Load 16/60 Superdex 200 pg (GE Healthcare Bioscience) equilibrated with buffer A. The fractions containing EGFR intracellular domain were collected and cryopreserved at −80° C.
(§2) EGFR kinase reaction was performed using a 96 well plate. As a buffer for kinase reaction, a buffer having a composition of 50 mM Tris-HCl (pH 7.5), 5 mM MnCl2, 2 mM dithiothreitol, 0.01% Tween-20 was used. The compound of the present invention was dissolved in dimethyl sulfoxide (DMSO), and diluted with the kinase reaction buffer so that DMSO concentration would be 0.1% during kinase reaction. This compound solution (10 μL) was mixed with a kinase reaction buffer (20 μL) containing EGFR intracellular domain (0.625 μg/mL) obtained in Experimental Example 2B and polypeptide substrate poly-Glu:Tyr (4:1) (Sigma Ltd., 12.5 μg/mL), and the mixture was stood at room temperature for 5 min. Then, a kinase reaction buffer (20 μL) containing 125 μM ATP and 45 μCi/mL [γ-^32P]ATP was added, and the kinase reaction was initiated with 50 μL of the final reaction mixture. A kinase reaction was performed at room temperature for 10 min, and the kinase reaction was quenched by addition of 20% TCA solution (50 μL). The mixture after completion of the reaction was stood at room temperature for 30 min, and acid insoluble fractions in the mixture after completion of the reaction were collected in a 96 well GF/C filter plate (PerkinElmer) using a cell harvester (PerkinElmer). Thereafter, the filter containing the acid insoluble fractions was washed with 3% phosphoric acid solution. After washing, the filter plate was dried at 45° C. for 60 min, and 25 μL of MicroScinti 0 (PerkinElmer) was added. The radioactivity was measured using TopCount (PerkinElmer).
EGFR kinase inhibitory rate (%) of the test compound was calculated by the following formula: […]

[3] = target: T2, HER2 intracellular domain (HER2 kinase) (Homo sapiens, UniProt P04626); assay: Determination of HER2 kinase inhibitory activity; format: biochemical; details: compound at 1.0 μM, poly-Glu:Tyr (4:1) substrate, [γ-32P]ATP, read-out: inhibitory rate (%) at 1.0 μM
T2 construct: made in house; host or cells: SF-21 insect cells infected with recombinant baculovirus BAC-HER2
T2 sequence (P04626 676-1255): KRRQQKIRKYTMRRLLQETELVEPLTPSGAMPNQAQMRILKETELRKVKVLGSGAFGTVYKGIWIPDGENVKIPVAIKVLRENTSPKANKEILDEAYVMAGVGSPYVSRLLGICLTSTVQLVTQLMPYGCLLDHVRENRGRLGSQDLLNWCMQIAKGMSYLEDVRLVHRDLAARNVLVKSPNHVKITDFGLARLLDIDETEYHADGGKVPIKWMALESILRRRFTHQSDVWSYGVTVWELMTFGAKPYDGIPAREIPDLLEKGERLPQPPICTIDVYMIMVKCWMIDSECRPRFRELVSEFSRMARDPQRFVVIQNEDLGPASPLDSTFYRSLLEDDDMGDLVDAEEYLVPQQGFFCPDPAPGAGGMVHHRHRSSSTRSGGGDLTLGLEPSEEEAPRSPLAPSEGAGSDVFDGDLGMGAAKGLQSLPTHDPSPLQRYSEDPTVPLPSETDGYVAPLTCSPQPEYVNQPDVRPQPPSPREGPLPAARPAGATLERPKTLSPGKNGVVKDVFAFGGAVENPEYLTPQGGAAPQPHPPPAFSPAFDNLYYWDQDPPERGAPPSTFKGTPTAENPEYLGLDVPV
Experimental: Human HER2 gene was cloned by RT-PCR using total RNA prepared from MCF7 cells as a template. The primer used for RT-PCR was prepared in consideration of the information of nucleotide sequence (Genbank Accession No. M11730) of HER2 gene by adding a nucleotide sequence encoding DYKDDDD peptide and a restriction enzyme recognition sequence to a nucleotide sequence (corresponding to 2176-3918 of Genbank Accession No. M11730 as a base, 676-1255 amino acids of Genbank Accession No. NP_004439 as a protein) encoding the HER2 intracellular domain region such that the protein contains an N-terminal DYKDDDD peptide tag. The primer nucleotide sequence is shown below.
as §1, with “hr,” for “hrs,”, “BAC-HER2” for “BAC-EGFR”, “HER2” for “EGFR”
as §2, with “HER2 kinase reaction” for “EGFR kinase reaction”, “buffer […] containing HER2” for “buffer (20 μL) containing EGFR”, “mL) containing HER2 intracellular domain” for “μL) containing EGFR intracellular domain”, “Experimental Example 1B and polypeptide” for “Experimental Example 2B and polypeptide”, “TopCount (PerkinElmer). HER2 kinase inhibitory rate (%) of the test compound was calculated by the following formula: […]” for “TopCount (PerkinElmer).”

CS(=O)(=O)CC(=O)NCCn1ccc2ncnc(Nc3ccc(Oc4cccc5c4CC(=O)N5)c(Cl)c3)c21 [Example 6, N-{2-[4-({3-chloro-4-[(2-oxo-2,3-dihydro-1H-indol-4-yl)oxy]phenyl}amino)-5H-pyrrolo[3,2-d]pyrimidin-5-yl]ethyl}-2-(methylsulfonyl)acetamide]
pIC50 [1]: > 7.00 | inhibition at 1 µM [2]: 100%

CS(=O)(=O)CC(=O)NCCn1ccc2ncnc(Nc3ccc(Oc4ccc5ccsc5c4)c(Cl)c3)c21 [Example 60, N-[2-(4-{[4-(1-benzothiophen-6-yloxy)-3-chlorophenyl]amino}-5H-pyrrolo[3,2-d]pyrimidin-5-yl)ethyl]-2-(methylsulfonyl)acetamide]
inhibition at 1 µM [2]: 99%

CC(=O)NCCn1ccc2ncnc(Nc3ccc(Oc4cccc5sccc45)c(Cl)c3)c21 [Example 119, N-[2-(4-{[4-(1-benzothiophen-4-yloxy)-3-chlorophenyl]amino}-5H-pyrrolo[3,2-d]pyrimidin-5-yl)ethyl]acetamide methanesulfonate]
inhibitory rate (%) at 1.0 μM ([2]; methanesulfonate, 1 µM): 99%

CC(C)(CO)C(=O)NCCn1ccc2ncnc(Nc3ccc(Oc4ccc5ccsc5c4)c(Cl)c3)c21 [Example 53, N-[2-(4-{[4-(1-benzothiophen-6-yloxy)-3-chlorophenyl]amino}-5H-pyrrolo[3,2-d]pyrimidin-5-yl)ethyl]-3-hydroxy-2,2-dimethylpropanamide]
inhibition at 1 µM [2]: 98%

CC(=O)NCCn1ccc2ncnc(Nc3ccc(Oc4cccc5sccc45)c(Cl)c3)c21 [Example 99, N-[2-(4-{[4-(1-benzothiophen-4-yloxy)-3-chlorophenyl]amino}-5H-pyrrolo[3,2-d]pyrimidin-5-yl)ethyl]acetamide]
inhibition at 1 µM [2]: 98%

Cn1ccc2ncnc(Nc3ccc(Oc4cccc5[nH]ccc45)c(Cl)c3)c21 [Example 22, N-[3-chloro-4-(1H-indol-4-yloxy)phenyl]-5-methyl-5H-pyrrolo[3,2-d]pyrimidin-4-amine]
pIC50 [1]: > 7.00 | inhibition at 1 µM [2]: 98%

OCCOCCn1ccc2ncnc(Nc3ccc(Oc4cccc5[nH]ccc45)c(Cl)c3)c21 [Example 16, 2-[2-(4-{[3-chloro-4-(1H-indol-4-yloxy)phenyl]amino}-5H-pyrrolo[3,2-d]pyrimidin-5-yl)ethoxy]ethanol]
inhibition at 1 µM [3]: 100% | inhibition at 1 µM [2]: 99%

CN1C(=O)Cc2c(Oc3ccc(Nc4ncnc5ccn(CCO)c45)cc3Cl)cccc21 [Example 8, 4-(2-chloro-4-{[5-(2-hydroxyethyl)-5H-pyrrolo[3,2-d]pyrimidin-4-yl]amino}phenoxy)-1-methyl-1,3-dihydro-2H-indol-2-one]
pIC50 [1]: > 7.00 | inhibition at 1 µM [2]: 100%
